Patent publication US20050250801A1, “Method of treating cancer with azaspirane compositions” (priority 2003, published 2005)
Where a name gives a salt, the structure may show the parent alone.

Experiment: Excretion of radioactivity after single oral administration to male rats, target dose 1 mg free base/kg
Assay type: in vivo, Sprague Dawley rats
Design: Excretion of Radioactivity: unit not given beside the values
Source text: [^14C] N,N,-diethyl-8,8-dipropyl-2-azaspiro[4,5]decane-2-propanamine dimaleate salt, (“Compound II”) with a specific activity of 91 uCi/mg and chemical purity >99%, and non-radiolabeled dimaleate salt of N,N,-diethyl-8,8-dipropyl-2-azaspiro[4,5]decane-2-propanamine dimaleate (Compound 1) chemical purity >98%, respectively, were used in this study. The site of the radiocarbon label in Compound II is depicted by an asterisk in Formula II. The non-radiolabeled material was used for reference purposes. The radiolabeled material was stored at ca […] in the dark and the non-radiolabeled material at ca −20° C. in the dark.
Three healthy male Sprague Dawley rats (Crl:CD(SD)BR), age ca 8-9 weeks, body weights at dosing 237-255 g, were supplied by Charles River (UK) Limited. The animals were housed in holding cages suitable for this species for 8 days prior to use. SDS Rat and Mouse Maintenance Diet No. 1, (Special Diets Services, Witham Essex), and mains quality water were available ad libitum throughout. The diet and water supplied to the animals were routinely analyzed for quality and no problems were detected. Holding and study areas had automatic control of light cycle and temperature. The actual range of temperature measured during the study was 17-25° C. with relative humidity measured at 60%.
The dose was prepared for oral administration on the day of dosing. […]
For each rat, an aliquot of the dose solution was administered orally by gavage. […] For each dose, the combined weight of dose and dosing equipment were recorded prior to dosing and the discharged dosing equipment was weighed after dosing. The concentration of radioactive material in each dose solution was also determined.
Immediately following dosing, the rats were placed into all glass metabolism cages suitable for the quantitative collection of excreta and expired air. All samples were collected into individual, uniquely labeled containers.
[…] The collection containers were cooled by solid CO2 during the first 48 hours after dosing.
[…] Collection containers were cooled by solid CO2 during the first 48 hours.
At the time of each feces collection, each cage was washed with water (ca 750 mL) and the washings were retained for radioassay. During the periods 0-24 h and 24-48 hours after dosing, expired air was passed through 2 serial traps containing ethanolamine:ethoxyethaonol (3:7, v/v) in order to effect the removal of CO2. The trap solvent was sampled for radioassay at the end of each collection period.
At 168 hours post dose, each animal was killed by CO2 narcosis and cervical dislocation. Gastrointestinal tracts were removed and retained separately from the carcasses in preparation for radioassay.
All urine and feces samples were stored frozen ([…]) prior to and after analysis. Cage washes were stored at room temperature until analysis was complete and were then discarded. All carcasses and gastro-intestinal tracts were stored frozen at ca-20° C. prior to analysis.
Duplicate aliquots of urine (ca 0.3 mL) and cage washings (ca 1 mL) were dispensed, diluted to 1 mL with distilled water (if considered necessary) and mixed with Quickzint 1 scintillation fluid (10 mL; Zinsser Analytic Maidenhead, UK).
Feces were homogenised in 1 to 2 volumes of water with the sample and homogenate weight recorded. Duplicate aliquots (ca 0.3) were taken from each sample and dispensed onto combustopads contained in combustocones (Can berra Packard Limited, Pangbourne, UK). When dry, these samples were combusted using a Packard Tri-Carb 306 Automatic Sample Oxidiser. The resultant ^14CO2 generated was collected by absorption in Carbo-Sorb® (8 mL; Can berra Packard Limited) to which Permafluor®E^+ scintillation fluid (10 mL; Can berra Packard Limited) was added.
For each rat, the carcass and gastro-intestinal tract with contents were solubilised in Soluene 350 (Canberra Packard). When dissolved, portions of the digest (ca 0.1 mL) were taken for liquid scintillation spectrometry. […]

CCCC1(CCC)CCC2(CCN(CCCN(CC)CC)C2)CC1 [Compound II, [^14C] N,N,-diethyl-8,8-dipropyl-2-azaspiro[4,5]decane-2-propanamine dimaleate salt]
Dose recovered in expired air (0-48 hours collection): Less than 0.2%
Excretion of Radioactivity (Cage Wash 0-24 hours, #1 male): 0.1
Excretion of Radioactivity (Cage Wash 0-24 hours, #2 male): 0.1
Excretion of Radioactivity (Cage Wash 0-24 hours, #3 male): *<0.1
Excretion of Radioactivity (Cage Wash 0-24 hours, Mean): ^+0.1
Excretion of Radioactivity (Cage Wash 0-168 hours, #1 male): 0.7
Excretion of Radioactivity (Cage Wash 0-168 hours, #2 male): 1.0
Excretion of Radioactivity (Cage Wash 0-168 hours, #3 male): 1.3
Excretion of Radioactivity (Cage Wash 0-168 hours, Mean): 1.0
Excretion of Radioactivity (Cage Wash 24-48 hours, #1 male): 0.1
Excretion of Radioactivity (Cage Wash 24-48 hours, #2 male): <0.1
Excretion of Radioactivity (Cage Wash 24-48 hours, #3 male): 0.1
Excretion of Radioactivity (Cage Wash 24-48 hours, Mean): 0.1
Excretion of Radioactivity (Cage Wash 48-72 hours, #1 male): <0.1
Excretion of Radioactivity (Cage Wash 48-72 hours, #2 male): 0.2
Excretion of Radioactivity (Cage Wash 48-72 hours, #3 male): 0.2
Excretion of Radioactivity (Cage Wash 48-72 hours, Mean): 0.1
Excretion of Radioactivity (Cage Wash 72-96 hours, #1 male): 0.1
Excretion of Radioactivity (Cage Wash 72-96 hours, #2 male): 0.2
Excretion of Radioactivity (Cage Wash 72-96 hours, #3 male): 0.3
Excretion of Radioactivity (Cage Wash 72-96 hours, Mean): 0.2
Excretion of Radioactivity (Cage Wash 96-120 hours, #1 male): 0.1
Excretion of Radioactivity (Cage Wash 96-120 hours, #2 male): 0.2
Excretion of Radioactivity (Cage Wash 96-120 hours, #3 male): 0.2
Excretion of Radioactivity (Cage Wash 96-120 hours, Mean): 0.2
Excretion of Radioactivity (Cage Wash 120-144 hours, #1 male): 0.1
Excretion of Radioactivity (Cage Wash 120-144 hours, #2 male): 0.1
Excretion of Radioactivity (Cage Wash 120-144 hours, #3 male): 0.3
Excretion of Radioactivity (Cage Wash 120-144 hours, Mean): 0.2
Excretion of Radioactivity (Cage Wash 144-168 hours, #1 male): 0.2
Excretion of Radioactivity (Cage Wash 144-168 hours, #2 male): 0.2
Excretion of Radioactivity (Cage Wash 144-168 hours, #3 male): 0.2
Excretion of Radioactivity (Cage Wash 144-168 hours, Mean): 0.2
Recovery of Radioactivity (Cage Washings, 168 hour collection period, #3 male): *1.3 % administered dose
Recovery of Radioactivity (Cage Washings, 168 hour collection period, Mean): ^+1.0 % administered dose
Recovery of Radioactivity (Carcass, at 168 hours, #1 male): 11.3 % administered dose
Recovery of Radioactivity (Carcass, at 168 hours, #2 male): 14.1 % administered dose
Recovery of Radioactivity (Carcass, at 168 hours, #3 male): 14.9 % administered dose
Recovery of Radioactivity (Carcass, at 168 hours, Mean): 13.5 % administered dose
Recovery of Radioactivity (Expired air 1, #1 male): *<0.1 % administered dose
Recovery of Radioactivity (Expired air 1, #2 male): *<0.1 % administered dose
Recovery of Radioactivity (Expired air 1, #3 male): *<0.1 % administered dose
Recovery of Radioactivity (Expired air 1, Mean): ^+<0.1 % administered dose
Recovery of Radioactivity (Expired air 2, #1 male): *<0.1 % administered dose
Recovery of Radioactivity (Expired air 2, #2 male): *<0.1 % administered dose
Recovery of Radioactivity (Expired air 2, #3 male): *<0.1 % administered dose
Recovery of Radioactivity (Expired air 2, Mean): ^+<0.1 % administered dose
Excretion of Radioactivity (Feces 0-24 hours, #1 male): 18.2
Excretion of Radioactivity (Feces 0-24 hours, #2 male): 14.7
Excretion of Radioactivity (Feces 0-24 hours, #3 male): 17.7
Excretion of Radioactivity (Feces 0-24 hours, Mean): 16.9
Excretion of Radioactivity (Feces 0-168 hours, #1 male): 64.0
Excretion of Radioactivity (Feces 0-168 hours, #2 male): 65.7
Excretion of Radioactivity (Feces 0-168 hours, #3 male): 66.7
Excretion of Radioactivity (Feces 0-168 hours, Mean): 65.5
Excretion of Radioactivity (Feces 24-48 hours, #1 male): 16.3
Excretion of Radioactivity (Feces 24-48 hours, #2 male): 17.2
Excretion of Radioactivity (Feces 24-48 hours, #3 male): 14.5
Excretion of Radioactivity (Feces 24-48 hours, Mean): 16.0
Excretion of Radioactivity (Feces 48-72 hours, #1 male): 10.0
Excretion of Radioactivity (Feces 48-72 hours, #2 male): 15.2
Excretion of Radioactivity (Feces 48-72 hours, #3 male): 12.7
Excretion of Radioactivity (Feces 48-72 hours, Mean): 12.6
Excretion of Radioactivity (Feces 72-96 hours, #1 male): 7.5
Excretion of Radioactivity (Feces 72-96 hours, #2 male): 7.8
Excretion of Radioactivity (Feces 72-96 hours, #3 male): 8.0
Excretion of Radioactivity (Feces 72-96 hours, Mean): 7.8
Excretion of Radioactivity (Feces 96-120 hours, #1 male): 5.5
Excretion of Radioactivity (Feces 96-120 hours, #2 male): 4.1
Excretion of Radioactivity (Feces 96-120 hours, #3 male): 6.4
Excretion of Radioactivity (Feces 96-120 hours, Mean): 5.3
Excretion of Radioactivity (Feces 120-144 hours, #1 male): 3.5
Excretion of Radioactivity (Feces 120-144 hours, #2 male): 3.5
Excretion of Radioactivity (Feces 120-144 hours, #3 male): 4.3
Excretion of Radioactivity (Feces 120-144 hours, Mean): 3.8
Excretion of Radioactivity (Feces 144-168 hours, #1 male): 3.0
Excretion of Radioactivity (Feces 144-168 hours, #2 male): 3.2
Excretion of Radioactivity (Feces 144-168 hours, #3 male): 3.1
Excretion of Radioactivity (Feces 144-168 hours, Mean): 3.1
Recovery of Radioactivity (GI Tract, at 168 hours, #1 male): 13.8 % administered dose
Recovery of Radioactivity (GI Tract, at 168 hours, #2 male): 13.3 % administered dose
Recovery of Radioactivity (GI Tract, at 168 hours, #3 male): 10.5 % administered dose
Recovery of Radioactivity (GI Tract, at 168 hours, Mean): 12.5 % administered dose
Recovery of Radioactivity (Total, 168 hour collection period, #1 male): 96.7 % administered dose
Recovery of Radioactivity (Total, 168 hour collection period, #2 male): 103.0 % administered dose
Recovery of Radioactivity (Total, 168 hour collection period, #3 male): 103.2 % administered dose
Recovery of Radioactivity (Total, 168 hour collection period, Mean): 101.0 % administered dose
Excretion of Radioactivity (Urine 0-6 hours, #1 male): 0.1
Excretion of Radioactivity (Urine 0-168 hours, #1 male): 6.9
Excretion of Radioactivity (Urine 0-168 hours, #2 male): 8.9
Excretion of Radioactivity (Urine 0-168 hours, #3 male): 9.8
Excretion of Radioactivity (Urine 0-168 hours, Mean): 8.5
Excretion of Radioactivity (Urine 6-24 hours, #1 male): 0.4
Excretion of Radioactivity (Urine 6-24 hours, #2 male): 0.5
Excretion of Radioactivity (Urine 6-24 hours, #3 male): 0.5
Excretion of Radioactivity (Urine 6-24 hours, Mean): 0.5
Excretion of Radioactivity (Urine 24-48 hours, #1 male): 1.0
Excretion of Radioactivity (Urine 24-48 hours, #2 male): 1.4
Excretion of Radioactivity (Urine 24-48 hours, #3 male): 1.4
Excretion of Radioactivity (Urine 24-48 hours, Mean): 1.3
Excretion of Radioactivity (Urine 48-72 hours, #1 male): 1.2
Excretion of Radioactivity (Urine 48-72 hours, #2 male): 1.5
Excretion of Radioactivity (Urine 48-72 hours, #3 male): 1.7
Excretion of Radioactivity (Urine 48-72 hours, Mean): 1.5
Excretion of Radioactivity (Urine 72-96 hours, #1 male): 1.3
Excretion of Radioactivity (Urine 72-96 hours, #2 male): 1.6
Excretion of Radioactivity (Urine 72-96 hours, #3 male): 2.0
Excretion of Radioactivity (Urine 72-96 hours, Mean): 1.6
Excretion of Radioactivity (Urine 96-120 hours, #1 male): 1.2
Excretion of Radioactivity (Urine 96-120 hours, #2 male): 1.5
Excretion of Radioactivity (Urine 96-120 hours, #3 male): 1.6
Excretion of Radioactivity (Urine 96-120 hours, Mean): 1.4
Excretion of Radioactivity (Urine 120-144 hours, #1 male): 0.9
Excretion of Radioactivity (Urine 120-144 hours, #2 male): 1.3
Excretion of Radioactivity (Urine 120-144 hours, #3 male): 1.3
Excretion of Radioactivity (Urine 120-144 hours, Mean): 1.2
Excretion of Radioactivity (Urine 144-162 hours, #1 male): 0.8
Excretion of Radioactivity (Urine 144-162 hours, #2 male): 1.0
Excretion of Radioactivity (Urine 144-162 hours, #3 male): 1.2
Excretion of Radioactivity (Urine 144-162 hours, Mean): 1.0
Dose remaining in the carcass (at 168 hours): ~13.5%
Dose remaining in the gastro-intestinal tract (at 168 hours): ~12.5%
Radioactive dose recovered in feces, mean (by 168 hours after dosing): 65.5%
Radioactive dose recovered in urine, mean (by 168 hours after dosing): 8.5%
Dose recovered in excreta and cage washings, mean (full 168 hour collection period): 75.0%
Recovery of administered radioactive dose (total, range over animals, 168 hours): 96.7-103.2%
Dose recovered in the excreta (up to 120 hours after dosing): ~66%
